PMC11790914, “Chemogenomics for steroid hormone receptors (NR3)” (Communications Chemistry, 2025)
Several values for one entry are separate records, joined by “and”; a condition that tells them apart may be missing. Equal values may be shown once. Read-outs that look alike come from different tables or passages of the source.

Tests used:
HEK293T cells [1] = assay: Cytotoxicity: necrosis induction (red fluorescent dye for permeable plasma membranes); assay type: cell-based; details: 1 µM, 24 h, necrotic cell count normalized to 0.1% DMSO, single replicates;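 also: compounds applied in DMEM high glucose with 0.1% FCS and 0.1% DMSO, necrotic HEK293T cells counted by red staining of cells whose plasma membranes had become permeable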
Description: Cells were incubated with the test compounds at the indicated concentrations solubilized with 0.1% DMSO for 24 h. […] Necrotic cells were detected with a red fluorescent dye that labels cells with permeable plasma membranes after 24 h treatment and the necrotic cell count was normalized to 0.1% DMSO treated cells (n = 4). e NR family selectivity profiling of NR3 CG compound candidates in uniform Gal4-hybrid reporter gene assays for selected NR representing the NR1, NR2, NR4 and NR5 families.
HEK293T cells (German Collection of Microorganisms and Cell Culture GmbH, DSMZ; #ACC305) were cultured in DMEM high glucose, supplemented with 10% fetal calf serum (FCS), sodium pyruvate (1 mM), penicillin (100 µ/mL) and streptomycin (100 µg/mL) at 37 °C and 5% (v/v) CO2, and seeded in pre-coated (10 µg/mL collagen G solution (Merck KgaA; #L7213) for 30 min at 37 °C) 96-well plates (2 × 10^5 cells per well). After 24 h, the cells were treated with the respective NR3 CG compound candidate at the recommended concentration, bexarotene (100 µM) or doxorubicin (30 µM) as positive controls in DMEM high glucose supplemented with 0.1% FCS, penicillin (100 µ/mL), streptomycin (100 µg/mL) and 0.1% DMSO, or 0.1% DMSO alone as an untreated control. Each sample was prepared in at least four biologically independent replicates. […] Before drug administration, after the first medium exchange, 24 h after drug administration, and after fluorescence imaging cell confluence was assessed using the Tecan Spark Cyto, to account for changes in cell confluence due to drug administration and cell handling. Compound effects on cell confluence, apoptosis, metabolic activity and necrosis were normalized to the vehicle control of each biological replicate individually.

Gal4-VP16 = assay type: cell-based; details: 1 µM; vs. DMSO ctrl; single replicates n=1-3
ABL1 = molecular target: T1, ABL1 (Homo sapiens, UniProt P00519); assay: Liability panel screening by DSF: ABL1; assay type: binding; details: read-out: Mean ΔTM ABL1
T1 construct: made in house
T1 sequence (P00519 whole entry, species assumed): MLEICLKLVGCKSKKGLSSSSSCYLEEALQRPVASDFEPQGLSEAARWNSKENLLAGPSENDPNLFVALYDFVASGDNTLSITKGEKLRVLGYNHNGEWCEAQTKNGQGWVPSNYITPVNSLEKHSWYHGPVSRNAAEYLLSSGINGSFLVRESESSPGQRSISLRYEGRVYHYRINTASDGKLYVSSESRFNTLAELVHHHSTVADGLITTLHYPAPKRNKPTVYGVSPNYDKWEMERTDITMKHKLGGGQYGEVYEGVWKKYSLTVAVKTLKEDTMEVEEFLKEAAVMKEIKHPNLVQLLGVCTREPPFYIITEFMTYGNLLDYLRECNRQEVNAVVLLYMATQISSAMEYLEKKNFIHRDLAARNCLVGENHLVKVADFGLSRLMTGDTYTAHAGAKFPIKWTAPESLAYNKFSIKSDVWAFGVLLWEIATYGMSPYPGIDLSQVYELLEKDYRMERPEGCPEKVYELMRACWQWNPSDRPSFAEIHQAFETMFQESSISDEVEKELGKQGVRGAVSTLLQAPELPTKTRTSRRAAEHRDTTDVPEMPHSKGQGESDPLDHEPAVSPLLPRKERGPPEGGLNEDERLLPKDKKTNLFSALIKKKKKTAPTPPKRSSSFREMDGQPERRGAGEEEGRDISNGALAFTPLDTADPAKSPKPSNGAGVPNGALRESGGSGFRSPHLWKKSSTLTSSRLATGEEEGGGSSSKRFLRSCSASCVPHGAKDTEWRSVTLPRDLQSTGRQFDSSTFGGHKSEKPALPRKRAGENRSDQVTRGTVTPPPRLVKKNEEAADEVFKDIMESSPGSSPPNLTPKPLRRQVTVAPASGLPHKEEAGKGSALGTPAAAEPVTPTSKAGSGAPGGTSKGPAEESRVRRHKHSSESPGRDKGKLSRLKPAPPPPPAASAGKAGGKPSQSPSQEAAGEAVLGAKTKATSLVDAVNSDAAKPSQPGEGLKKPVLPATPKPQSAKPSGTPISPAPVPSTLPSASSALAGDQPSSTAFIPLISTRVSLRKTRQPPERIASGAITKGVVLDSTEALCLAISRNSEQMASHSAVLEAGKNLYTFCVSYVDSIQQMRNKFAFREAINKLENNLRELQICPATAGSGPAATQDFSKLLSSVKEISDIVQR
In short: (§1)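 ∆Tm in K was taken from Boltzmann-fitted unfolding inflection points, run in duplicate with a temperature ramp of 3 °C per minute up to 85 °C. Each recombinant protein (2 µM) was in HEPES 10 mM pH 7.5 and NaCl 500 mM, with SYPRO Orange dye at 1:1000.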

AURKA = molecular target: T2, AURKA (Homo sapiens, UniProt O14965); assay: Liability panel screening by DSF: AURKA; assay type: binding; details: read-out: Mean ΔTM AURKA
T2 construct: made in house
T2 sequence (O14965 1-403): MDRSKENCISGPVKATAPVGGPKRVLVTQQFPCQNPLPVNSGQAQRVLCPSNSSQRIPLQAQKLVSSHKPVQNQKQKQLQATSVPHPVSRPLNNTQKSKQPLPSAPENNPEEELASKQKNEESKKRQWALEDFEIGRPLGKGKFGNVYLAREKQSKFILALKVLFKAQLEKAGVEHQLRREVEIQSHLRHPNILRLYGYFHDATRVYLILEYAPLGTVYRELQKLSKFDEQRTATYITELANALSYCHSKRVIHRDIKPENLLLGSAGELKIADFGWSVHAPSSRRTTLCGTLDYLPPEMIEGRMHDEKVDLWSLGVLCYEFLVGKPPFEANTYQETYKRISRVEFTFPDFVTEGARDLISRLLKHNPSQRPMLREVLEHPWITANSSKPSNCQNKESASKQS
In short: as §1

CDK2 = molecular target: T3, CDK2 (Homo sapiens, UniProt P24941); assay: Liability panel screening by DSF: CDK2; assay type: binding; details: read-out: Mean ΔTM CDK2
T3 construct: made in house
In short: as §1

FGFR3 = molecular target: T4, FGFR3 (Homo sapiens, UniProt P22607); assay: Liability panel screening by DSF: FGFR3; assay type: binding; details: read-out: Mean ΔTM FGFR3
T4 construct: made in house
T4 sequence (P22607 23-806, species assumed): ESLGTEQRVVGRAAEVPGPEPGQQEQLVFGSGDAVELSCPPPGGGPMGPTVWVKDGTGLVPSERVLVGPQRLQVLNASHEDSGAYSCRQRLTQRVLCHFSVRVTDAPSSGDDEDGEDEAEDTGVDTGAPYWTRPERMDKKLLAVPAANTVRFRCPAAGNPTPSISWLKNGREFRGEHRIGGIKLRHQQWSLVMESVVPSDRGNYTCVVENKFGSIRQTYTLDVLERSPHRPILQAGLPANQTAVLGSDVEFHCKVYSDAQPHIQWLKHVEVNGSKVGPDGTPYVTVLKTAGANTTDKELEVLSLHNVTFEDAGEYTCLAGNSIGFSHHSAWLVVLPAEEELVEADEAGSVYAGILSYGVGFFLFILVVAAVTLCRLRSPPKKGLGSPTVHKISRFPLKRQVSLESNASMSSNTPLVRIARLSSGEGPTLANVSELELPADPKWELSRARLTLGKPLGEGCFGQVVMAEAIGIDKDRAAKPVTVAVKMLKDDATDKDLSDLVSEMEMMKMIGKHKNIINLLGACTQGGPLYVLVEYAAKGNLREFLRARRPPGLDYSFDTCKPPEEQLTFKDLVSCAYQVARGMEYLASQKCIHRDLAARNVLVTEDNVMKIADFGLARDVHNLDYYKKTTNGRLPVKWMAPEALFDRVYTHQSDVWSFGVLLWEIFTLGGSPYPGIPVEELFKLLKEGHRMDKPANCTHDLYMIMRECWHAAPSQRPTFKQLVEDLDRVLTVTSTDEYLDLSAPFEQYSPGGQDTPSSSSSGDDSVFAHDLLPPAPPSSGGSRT
In short: as §1

GSK3B = molecular target: T5, GSK3B (Homo sapiens, UniProt P49841); assay: Liability panel screening by DSF: GSK3B; assay type: binding; details: read-out: Mean ΔTM GSK3B
T5 construct: made in house
T5 sequence (P49841 whole entry, species assumed): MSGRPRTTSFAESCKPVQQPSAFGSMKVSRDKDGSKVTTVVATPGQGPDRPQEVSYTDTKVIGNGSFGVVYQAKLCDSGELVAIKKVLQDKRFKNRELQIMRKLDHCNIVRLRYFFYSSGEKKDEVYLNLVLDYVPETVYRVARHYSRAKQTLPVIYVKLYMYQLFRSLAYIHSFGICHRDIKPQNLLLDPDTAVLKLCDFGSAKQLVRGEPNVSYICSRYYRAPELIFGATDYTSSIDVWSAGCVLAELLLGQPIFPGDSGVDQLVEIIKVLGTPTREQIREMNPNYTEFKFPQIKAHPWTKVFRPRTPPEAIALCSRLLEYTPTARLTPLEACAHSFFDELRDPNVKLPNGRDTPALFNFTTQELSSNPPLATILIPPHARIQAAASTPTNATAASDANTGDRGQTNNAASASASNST

BRD4 = molecular target: T6, BRD4 (Homo sapiens, UniProt O60885); assay: Liability panel screening by DSF: BRD4; assay type: binding; details: read-out: Mean ΔTM BRD4
T6 construct: This panel comprised ten highly ligandable kinases and bromodomains; made in house
In short: as §1

BRPF1 = molecular target: T7, BRPF1 (Homo sapiens, UniProt P55201); assay: Liability panel screening by DSF: BRPF1; assay type: binding; details: read-out: Mean ΔTM BRPF1
T7 construct: This panel comprised ten highly ligandable kinases and bromodomains; made in house
T7 sequence (P55201 628-732 limits assumed): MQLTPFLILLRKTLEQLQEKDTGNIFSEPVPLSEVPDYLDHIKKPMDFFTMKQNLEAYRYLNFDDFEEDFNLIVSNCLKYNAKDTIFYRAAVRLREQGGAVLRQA
In short: as §1

CSNK1D = molecular target: T8, CSNK1D (Homo sapiens, UniProt P48730); assay: Liability panel screening by DSF: CSNK1D; assay type: binding; details: read-out: Mean ΔTM CSNK1D
T8 construct: made in house
T8 sequence (P48730 whole entry, species assumed): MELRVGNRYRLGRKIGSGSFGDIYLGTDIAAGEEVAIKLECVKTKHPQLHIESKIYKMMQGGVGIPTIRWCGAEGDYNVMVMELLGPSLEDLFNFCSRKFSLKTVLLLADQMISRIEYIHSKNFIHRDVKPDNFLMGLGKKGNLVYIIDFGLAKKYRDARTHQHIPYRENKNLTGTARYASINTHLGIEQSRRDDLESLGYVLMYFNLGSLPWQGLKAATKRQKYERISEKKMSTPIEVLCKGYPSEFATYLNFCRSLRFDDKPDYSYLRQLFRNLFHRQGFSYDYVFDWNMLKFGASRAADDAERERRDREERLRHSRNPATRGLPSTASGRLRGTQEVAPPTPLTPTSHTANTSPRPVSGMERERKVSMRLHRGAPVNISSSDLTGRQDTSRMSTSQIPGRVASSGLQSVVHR
In short: as §1

MAPK1 = molecular target: T9, MAPK1 (Homo sapiens, UniProt P28482); assay: Liability panel screening by DSF: MAPK1; assay type: binding; details: read-out: Mean ΔTM MAPK1
T9 construct: made in house
T9 sequence (P28482 whole entry, species assumed): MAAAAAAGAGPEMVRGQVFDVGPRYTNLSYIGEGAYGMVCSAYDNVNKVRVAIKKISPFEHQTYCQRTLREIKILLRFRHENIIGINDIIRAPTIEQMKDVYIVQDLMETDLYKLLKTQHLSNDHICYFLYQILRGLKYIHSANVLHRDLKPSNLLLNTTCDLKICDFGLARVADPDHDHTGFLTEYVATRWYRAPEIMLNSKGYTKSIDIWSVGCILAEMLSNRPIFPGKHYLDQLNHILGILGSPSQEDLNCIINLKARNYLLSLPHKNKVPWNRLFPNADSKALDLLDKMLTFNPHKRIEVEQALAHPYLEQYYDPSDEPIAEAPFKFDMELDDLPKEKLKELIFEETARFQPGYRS
In short: as §1

TRIM24 = molecular target: T10, TRIM24 (Homo sapiens, UniProt O15164); assay: Liability panel screening by DSF: TRIM24; assay type: binding; details: read-out: Mean ΔTM TRIM24
T10 construct: This panel comprised ten highly ligandable kinases and bromodomains; made in house
T10 sequence (O15164 899-1004 limits assumed): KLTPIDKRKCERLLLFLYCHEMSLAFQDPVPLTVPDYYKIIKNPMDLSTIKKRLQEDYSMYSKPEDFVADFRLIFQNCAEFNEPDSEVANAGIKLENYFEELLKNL
In short: as §1

[2] = test system: NF-κB activity in HEK293 NF-κB reporter cells; assay: NF-kB activity assay (GFP reporter, ionomycin/PMA); assay type: cell-based; details: for Mean NFκB response: n=3; for NF-κB activity (inflammatory response to ionomycin/PMA): HEK293 NF-κB reporter cells, compounds at recommended concentrations, imaged over 24 h, n = 3
In short: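 HEK293 NF-κB GFP reporter cells given compound in 0.1% DMSO for 4 h, then stimulated with ionomycin 100 ng/mL plus PMA 10 ng/mL. Imaged every 90 min over 24 h; GFP-positive cell count normalized to confluence, three independent biological replicates.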

[3] = test system: ATF6 activity in Hela ATF6 reporter cells; assay: Endoplasmic reticulum stress assay (ATF6 Renilla luciferase reporter, tunicamycin); assay type: cell-based; details: Homo sapiens, HeLa, 1 µM, single replicates n=1 to n=5; read-out: ER stress [rel. ATF6 activity]
In short: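 HeLa ATF6 Renilla reporter cells were pretreated 4 h with compounds in 0.1% DMSO, then stimulated with tunicamycin (100 ng/mL) for 18 h. Renilla luminescence (DualGlo) was normalized to 0.1% DMSO control; five independent experiments.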

NR3C4 (AR) = details: cited from earlier work
HEK293T cells [4] = assay: Cytotoxicity: metabolic activity (WST-8 / CCK-8 assay); details: 1 µM; HEK293T, 24 h; WST-8; normalized to 0.1% DMSO; single replicates
Description: (§2) Cells were incubated with the test compounds at the indicated concentrations solubilized with 0.1% DMSO for 24 h. Growth-rate was determined based on the change in confluence over 24 h normalized to the change in confluence of cells treated with the 0.1% DMSO control (n = 10). Metabolic activity was determined with a water-soluble tetrazolium-8 (WST-8) assay (n = 8) after 24 h treatment. Apoptotic cells were detected with a fluorogenic DNA dye coupled to the caspase-3/7 recognition sequence (DEVD) after 24 h treatment and the apoptotic cell count was normalized to 0.1% DMSO treated cells (n = 6).
(§3) HEK293T cells (German Collection of Microorganisms and Cell Culture GmbH, DSMZ; #ACC305) were cultured in DMEM high glucose, supplemented with 10% fetal calf serum (FCS), sodium pyruvate (1 mM), penicillin (100 µ/mL) and streptomycin (100 µg/mL) at 37 °C and 5% (v/v) CO2, and seeded in pre-coated (10 µg/mL collagen G solution (Merck KgaA; #L7213) for 30 min at 37 °C) 96-well plates (2 × 10^5 cells per well). After 24 h, the cells were treated with the respective NR3 CG compound candidate at the recommended concentration, bexarotene (100 µM) or doxorubicin (30 µM) as positive controls in DMEM high glucose supplemented with 0.1% FCS, penicillin (100 µ/mL), streptomycin (100 µg/mL) and 0.1% DMSO, or 0.1% DMSO alone as an untreated control. Each sample was prepared in at least four biologically independent replicates. […] Thereafter, the medium was aspirated and the cells were incubated for 3 h with 90 µL DMEM high glucose supplemented with 0.2% FCS, penicillin (100 µ/mL) and streptomycin (100 µg/mL) and additionally containing 10 µL Cell Counting Kit 8 solution (CCK-8; MedChemExpress, Monmouth Junction, New York, USA; #HY-K0301), and absorbance was measured at 1 h, 2 h and 3 h of incubation at 450 nm on a Tecan Spark Cyto to assess metabolic activity of the cells. Before drug administration, after the first medium exchange, 24 h after drug administration, and after fluorescence imaging cell confluence was assessed using the Tecan Spark Cyto, to account for changes in cell confluence due to drug administration and cell handling. Compound effects on cell confluence, apoptosis, metabolic activity and necrosis were normalized to the vehicle control of each biological replicate individually.

HEK293T cells [5] = assay: Cytotoxicity: growth-rate (change in confluence over 24 h); details: 1 µM, normalized to 0.1% DMSO control, single replicates (n=1...)
Description: as §2, §3

HEK293T cells [6] = assay: Cytotoxicity: apoptosis induction (caspase-3/7 DEVD fluorogenic DNA dye); details: 1 µM; HEK293T, 24 h; apoptotic cell count normalized to 0.1% DMSO; single replicates

Structure (SMILES) | Necrosis induction [NI] (HEK293T cells [1]) | VP16 control [fold reporter gene activity] (Gal4-VP16) | Mean NFκB response ([2]; 1 µM, 1,5 h) | Mean NFκB response ([2]; 1 µM, 4,5 h) | Mean NFκB response ([2]; 1 µM, 7,5 h) | Mean NFκB response ([2]; 1 µM, 10,5 h) | Mean NFκB response ([2]; 1 µM, 13,5 h) | Mean NFκB response ([2]; 1 µM, 16,6 h) | Mean NFκB response ([2]; 1 µM, 19,5 h) | Mean NFκB response ([2]; 1 µM, 22,5 h) | Mean NFκB response ([2]; 1 µM, 3 h) | Mean NFκB response ([2]; 1 µM, 6 h) | Mean NFκB response ([2]; 1 µM, 9 h) | Mean NFκB response ([2]; 1 µM, 12 h) | Mean NFκB response ([2]; 1 µM, 15 h) | Mean NFκB response ([2]; 1 µM, 18 h) | Mean NFκB response ([2]; 1 µM, 21 h) | Mean NFκB response ([2]; 1 µM, 24 h) | NF-κB activity (inflammatory response to ionomycin/PMA) [2] | Metabolic activity [MA] (HEK293T cells [4]) | other results
CC(=O)Nc1ccc(OC[C@](C)(O)C(=O)Nc2ccc([N+](=O)[O-])c(C(F)(F)F)c2)cc1 [Andarine] | 0.97 and 1.10 and 1.08 and 1.02 | 1.16 fold reporter gene activity and 1.15 fold reporter gene activity and 1.08 fold reporter gene activity | 2599.83 GFP+-cells/confluence ∙ 1000 | 2912.69 GFP+-cells/confluence ∙ 1000 | 4207.99 GFP+-cells/confluence ∙ 1000 | 8408.10 GFP+-cells/confluence ∙ 1000 | 11806.03 GFP+-cells/confluence ∙ 1000 | 14271.49 GFP+-cells/confluence ∙ 1000 | 16631.36 GFP+-cells/confluence ∙ 1000 | 18398.57 GFP+-cells/confluence ∙ 1000 | 2627.11 GFP+-cells/confluence ∙ 1000 | 3252.11 GFP+-cells/confluence ∙ 1000 | 5899.76 GFP+-cells/confluence ∙ 1000 | 10166.51 GFP+-cells/confluence ∙ 1000 | 13144.54 GFP+-cells/confluence ∙ 1000 | 15566.10 GFP+-cells/confluence ∙ 1000 | 17508.52 GFP+-cells/confluence ∙ 1000 | 19523.33 GFP+-cells/confluence ∙ 1000 | anti-inflammatory effect | 0.98 and 1.03 and 0.99 and 1.08 and 1.06 (2×) and 1.01 and 1.09 | ΔTm at 20 µM (ABL1): 0.78 °C; ΔTm at 20 µM (AURKA): -0.0326 °C; ΔTm at 20 µM (CDK2): 0.35 °C; ΔTm at 20 µM (FGFR3): 2.59 °C; ΔTm at 20 µM (GSK3B): 0.71 °C; ΔTm at 20 µM (BRD4): -0.77 °C; ΔTm at 20 µM (BRPF1): 0.97 °C; ΔTm at 20 µM (CSNK1D): 0.23 °C; ΔTm at 20 µM (MAPK1): -0.26 °C; ΔTm at 20 µM (TRIM24): 0.0216 °C; activity at 1 µM [3]: 93%; rel. activity from literature, NR3C4 (AR): % of DHT (NR3C4 (AR); of DHT (dihydrotestosterone), ref Supplementary Table 1): 93 ± 7%; EC50 (NR3C4 (AR); read-out: Potency [nM] EC50, NR3C4 (AR), (lit.), ref Supplementary Table 1): 4 ± 0.7 nM; Growth rate [GR] (HEK293T cells [5]): 0.83 (2×) and 2.46 and 0.88 and 1.35 and 0.73 and 0.55 and 1.46 and 1.51 and 2.55; Apoptosis induction [AI] (HEK293T cells [6]): 0.62 and 0.88 and 1.01 and 1.08 and 0.95 and 0.84
CC(=O)O[C@]1(C(C)=O)CC[C@H]2[C@@H]3C=C(Cl)C4=CC(=O)[C@@H]5C[C@@H]5[C@]4(C)[C@H]3CC[C@@]21C [Cyproterone acetate] | 0.92 and 0.81 and 0.87 and 0.98 | 1.23 fold reporter gene activity and 1.09 fold reporter gene activity and 0.95 fold reporter gene activity | 3306.11 GFP+-cells/confluence ∙ 1000 | 3956.53 GFP+-cells/confluence ∙ 1000 | 9166.88 GFP+-cells/confluence ∙ 1000 | 19295.79 GFP+-cells/confluence ∙ 1000 | 27594.44 GFP+-cells/confluence ∙ 1000 | 34636.12 GFP+-cells/confluence ∙ 1000 | 38741.56 GFP+-cells/confluence ∙ 1000 | 41845.76 GFP+-cells/confluence ∙ 1000 | 3525.65 GFP+-cells/confluence ∙ 1000 | 5348.79 GFP+-cells/confluence ∙ 1000 | 14582.16 GFP+-cells/confluence ∙ 1000 | 23573.19 GFP+-cells/confluence ∙ 1000 | 31392.99 GFP+-cells/confluence ∙ 1000 | 36648.57 GFP+-cells/confluence ∙ 1000 | 40465.37 GFP+-cells/confluence ∙ 1000 | 42894.68 GFP+-cells/confluence ∙ 1000 | tended to enhance NF-κB activity | 1.02 (2×) and 0.92 and 0.98 and 1.01 and 0.94 and 0.99 and 1.05 | ΔTm at 20 µM (ABL1; DSF, 20 µM, n=2): 0.36 °C; ΔTm at 20 µM (AURKA; DSF, 20 µM, n=2): -1.49 °C; ΔTm at 20 µM (CDK2; DSF, 20 µM, n=2): 0.15 °C; ΔTm at 20 µM (FGFR3; DSF, 20 µM, n=2): 0.57 °C; ΔTm at 20 µM (GSK3B; DSF, 20 µM, n=2): -0.72 °C; ΔTm at 20 µM (BRD4; DSF, 20 µM, n=2): -1.71 °C; ΔTm at 20 µM (BRPF1; DSF, 20 µM, n=2): -1.28 °C; ΔTm at 20 µM (CSNK1D; DSF, 20 µM, n=2): 0.16 °C; ΔTm at 20 µM (MAPK1; DSF, 20 µM, n=2): -0.22 °C; ΔTm at 20 µM (TRIM24; DSF, 20 µM, n=2): -1.08 °C; rel. activity from literature, NR3C4 (AR): % rem. act. of DHT (NR3C4 (AR)): 52 ± 6%; IC50 (NR3C4 (AR); read-out: Potency [nM] IC50, NR3C4 (AR)): 26 ± 23 nM; Growth rate [GR] (HEK293T cells [5]): 1.11 and 1.76 and 1.28 and 1.77 and 1.08 and 0.80 (2×) and 0.94 and 0.96 and 1.44; Apoptosis induction [AI] (HEK293T cells [6]): 0.80 and 0.89 and 0.91 and 1.07 and 1.28 and 0.67
